In US20100168129A1, “DRUGS WITH ANTICHOLESTATIC ACTIVITY” (priority 2007, published 2010):
Read-outs that look alike come from different tables or passages of the source.

Assays:
[1] = target: T1, human receptor PXR (Homo sapiens, UniProt O75469); experiment: activation of the PXR receptor: CYP3A4 luciferase reporter induction in cell line DPX2; conditions: for Mean RLU: cell line DPX2P29; for Induction above DMSO: ratio of luciferase activity to DMSO-treated cells
T1 sequence (O75469 1-434): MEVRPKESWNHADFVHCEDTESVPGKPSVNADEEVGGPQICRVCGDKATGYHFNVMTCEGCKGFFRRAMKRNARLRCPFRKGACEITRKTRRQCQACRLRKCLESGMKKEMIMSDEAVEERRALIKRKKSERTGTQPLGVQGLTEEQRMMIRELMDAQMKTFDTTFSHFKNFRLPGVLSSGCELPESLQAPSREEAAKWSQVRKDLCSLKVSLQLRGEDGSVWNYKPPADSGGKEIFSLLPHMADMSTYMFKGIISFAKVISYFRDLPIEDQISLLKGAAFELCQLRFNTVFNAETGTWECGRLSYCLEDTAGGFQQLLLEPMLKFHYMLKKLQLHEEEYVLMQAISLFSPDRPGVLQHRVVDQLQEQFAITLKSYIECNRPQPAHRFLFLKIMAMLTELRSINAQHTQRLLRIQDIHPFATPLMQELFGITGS
Procedure: (§1) The activity of the new rifamycins is expressed as a ratio between luciferase activity in cells treated with the tested substance and that of the cells treated with DMSO. The viability and morphology of the cells are analyzed by optical microscopy.

[2] = test system: cell line DPX2; experiment: viability and morphology of the cells by optical microscopy
Procedure: as §1

[3] = test system: Micrococcus luteus ATCC 10240; experiment: plate diffusion method, antibacterial activity and MIC; assay type: cell-based
Procedure: To verify antibacterial activity, the plate diffusion method is used as described in the pharmacopeia: • A quantity of the sample is weighed and slowly dissolved in 25 ml of methanol R • A quantity of 0.05 M phosphate buffer at pH 7.0 is added so as to obtain the following concentrations: 50 μg/ml, 20 μg/ml, 10 μg/ml and 5 μg/ml • Plates were prepared with appropriate culture medium (agar thickness approximately 2-5 mm) inoculated with a suspension of Micrococcus luteus ATCC 10240, Staphylococcus aureus ATCC 6538 and Escherichia coli ATCC 8739. • 0.1 ml of the different concentrations of each sample were dispensed into the wells formed in the agar plates • The plates were held for 1-2 hours at ambient temperature to allow diffusion of the sample and then incubated at 35-39° C. for not less than 18 hours. • The diameters of the inhibition halos of the compounds were measured with a gauge and compared with those of the reference substance, the results being expressed as percentages.

[4] = test system: cell line DPX2; conditions: human, 10 μM
Procedure: as §1

[5] = target: T1, human receptor PXR; conditions: 10 μM
Procedure: as §1

[6] = Table A, 5 μg/ml, inhibition halo vs reference standard (rifamycin S for SX1, rifampicin for SX4 and SX5)
[7] = Table A, 10 μg/ml, inhibition halo vs reference standard (rifamycin S for SX1, rifampicin for SX4 and SX5)
[8] = Table A, 50 μg/ml, inhibition halo vs reference standard (rifamycin S for SX1, rifampicin for SX4 and SX5)
[9] = Table B, 5 μg/ml, compared with standard rifampicin
[10] = Table B, 10 μg/ml, compared with standard rifampicin
[11] = Table B, 20 μg/ml, compared with standard rifampicin
[12] = Table B, 50 μg/ml, compared with standard rifampicin

Row | Structure (SMILES) | Mean RLU ([1]; 5 μM) | Induction above DMSO ([1]; 5 μM) | Mean RLU ([1]; 10 μM) | Induction above DMSO ([1]; 10 μM) | Mean RLU ([1]; 20 μM) | Induction above DMSO ([1]; 20 μM) | Mean RLU ([1]; 40 μM) | Induction above DMSO ([1]; 40 μM) | Cell appearance**: cell confluence (%) ([2]; 5 μM) | Cell appearance**: morphology ([2]; 5 μM) | Cell appearance**: cell confluence (%) ([2]; 10 μM) | Cell appearance**: cell confluence (%) ([2]; 20 μM) | Cell appearance**: cell confluence (%) ([2]; 40 μM) | percentage antibacterial activity [3, 6] | percentage antibacterial activity [3, 7] | percentage antibacterial activity [3, 8] | percentage antibacterial activity [3, 9] | percentage antibacterial activity [3, 10] | percentage antibacterial activity [3, 11] | percentage antibacterial activity [3, 12] | further results
1 | COC1CCOC2(C)Oc3c(C)c(O)c4c(O)c(c(C=NN5CCN(C)CC5)c(O)c4c3C2=O)NC(=O)C(C)CCCC(C)C(O)C(C)C(O)C(C)C(OC(C)=O)C1C (centres unmarked) [Example 1, 3-(4′-methyl-1′-piperazinyl-iminomethyl)-16,17,18,19,28,29-hexahydrorifamycin SV] | 8698 RLU | 39.0 | 12069 RLU | 54.1 | 12918 RLU | 57.9 | 14636 RLU | 65.6 | 30% | MCM | 30% | 30% | 30% | 0% | 0% | 42% | – | – | – | – | Cell appearance**: morphology ([2]; 10 μM): MCM; Cell appearance**: morphology ([2]; 20 μM): MCM; Cell appearance**: morphology ([2]; 40 μM): MCM
2 | COC1CCOC2(C)Oc3c(C)c(O)c4c(O)c(c(C=NN5CCN(C)CC5)c(O)c4c3C2=O)NC(=O)C(C)CCCC(C)C2OC(C)(C)OC(C2C)C(C)C(OC(C)=O)C1C (centres unmarked) [Example 3, 3-(4′-methyl-1′-piperazinyl-iminomethyl)-21,23-O-isopropylidene-16,17,18,19,28,29-hexahydrorifamycin SV] | 8052 RLU | 36.1 | 10848 RLU | 48.6 | 7125 RLU | 32.0 | 4243 RLU | 19.0 | 30% | MCM | 30% | 20% | 20% | 0% | 0% | 0% | – | – | – | – | Cell appearance**: morphology ([2]; 10 μM): MCM; Cell appearance**: morphology ([2]; 20 μM): MCM; MIC (Minimum Inhibitory Concentration) ([3]; Table A): >50 mg/L
3 | CCN1CCN(N=Cc2c3c(O)c4c(O)c(C)c5c(c4c2O)C(=O)C(C)(OCCC(OC)C(C)C(OC(C)=O)C(C)C(O)C(C)C(O)C(C)CCCC(C)C(=O)N3)O5)CC1 (centres unmarked) [Example 6, 3-(4′-ethyl-1′-piperazinyl-iminomethyl)-16,17,18,19,28,29-hexahydrorifamycin SV] | – | – | – | – | – | – | – | – | – | – | – | – | – | – | – | – | 0% | 0% | 0% | 39% | –
4 | CCOCCN1CCN(N=Cc2c3c(O)c4c(O)c(C)c5c(c4c2O)C(=O)C(C)(OCCC(OC)C(C)C(OC(C)=O)C(C)C(O)C(C)C(O)C(C)CCCC(C)C(=O)N3)O5)CC1 (centres unmarked) [Example 12, 3-[4′-(2-ethoxyethyl)-1′-piperazinyl-iminomethyl]-16,17,18,19,28,29-hexahydrorifamycin SV] | – | – | – | – | – | – | – | – | – | – | – | – | – | – | – | – | 0% | 0% | 0% | 0% | MIC (Minimum Inhibitory Concentration) ([3]; Table B): >50 mg/L
5 | COC1CCOC2(C)Oc3c(C)c(O)c4c(O)c(c(C=NN5CCN(C(C)C)CC5)c(O)c4c3C2=O)NC(=O)C(C)CCCC(C)C(O)C(C)C(O)C(C)C(OC(C)=O)C1C (centres unmarked) [Example 15, 3-(4′-isopropyl-1′-piperazinyl-iminomethyl)-16,17,18,19,28,29-hexahydrorifamycin SV] | – | – | – | – | – | – | – | – | – | – | – | – | – | – | – | – | 0% | 0% | 0% | 0% | MIC (Minimum Inhibitory Concentration) ([3]; Table B): >50 mg/L
6 | CO[C@H]1/C=C/O[C@@]2(C)Oc3c(C)c(O)c4c(c3C2=O)C(=O)C(N2CCOCC2)=C(NC(=O)/C(C)=C\C=C\[C@H](C)[C@@H]2OC(C)(C)O[C@@H]([C@@H](C)[C@H](OC(C)=O)[C@@H]1C)[C@@H]2C)C4=O [Example 23, 3-morpholine-21,23 O-isopropylidenerifamycin S, reference compound] | 6537 RLU | 29.3 | 7869 RLU | 35.3 | 4738 RLU | 21.2 | 396 RLU | 1.8 | 30% | MCM | 30% | 10% | 0% | 39% | 40% | 69% | – | – | – | – | PXR activation, comparison in words ([1]; compared with the compounds of the invention): decidedly less active; MIC (Minimum Inhibitory Concentration) ([3]; Table A): <5 mg/L
7 | CC[C@H](C)C(=O)O[C@H]1CCC=C2C=C[C@H](C)[C@H](CC[C@@H]3C[C@@H](O)CC(=O)O3)[C@H]21 [Mevastafin, Mevastatin] | – | – | – | 3.4 | – | – | – | – | – | – | – | – | – | – | – | – | – | – | – | – | Cell appearance**: cell confluence (%) [4]: 30%; Cell appearance**: morphology [4]: MCM; Mean RLU [5]: 758 RLU
